Where “and” joins values, the source holds several entries; their conditions need not be identical. Equal values may be shown once. Inconclusive results and toxic doses are left out. Cut-off read from the data, not from the text of the source: active = T/C of 150% or more; inactive = T/C below 125%.
System: L1210 leukemia ip in BDF1 mice, survival T/C
Test: NCI In Vivo Anticancer Drug Screen. Data for tumor model L1210 Leukemia (intraperitoneal) in B6D2F1 (BDF1) mice
Conditions: endpoint: mean survival time, higher = longer survival
In short: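 Tumor was transplanted into mice, which were then dosed with test compound or vehicle alone. Survival was recorded for each group, and the treated figure was expressed relative to the control figure.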

[1] = dose: 25.0 mg/kg/injection, schedule: Q01DX009 (ip), vehicle: saline
[2] = dose: 25.0 mg/kg/injection, schedule: Q04DX003 (ip), vehicle: saline
[3] = dose: 50.0 mg/kg/injection, schedule: Q01DX009 (ip), vehicle: saline
[4] = dose: 50.0 mg/kg/injection, schedule: Q04DX003 (ip), vehicle: saline
[5] = dose: 100.0 mg/kg/injection, schedule: Q01DX009 (ip), vehicle: saline
[6] = dose: 100.0 mg/kg/injection, schedule: Q04DX003 (ip), vehicle: saline
[7] = dose: 200.0 mg/kg/injection, schedule: Q04DX003 (ip), vehicle: saline
[8] = dose: 100.0 mg/kg/injection, schedule: Q01DX001 (ip), vehicle: Klucel (hydroxypropylcellulose) (HPC)
[9] = dose: 100.0 mg/kg/injection, schedule: Q04DX003 (ip), vehicle: saline with Tween-80
[10] = dose: 200.0 mg/kg/injection, schedule: Q04DX003 (ip), vehicle: saline with Tween-80
[11] = dose: 400.0 mg/kg/injection, schedule: Q04DX003 (ip), vehicle: saline with Tween-80
[12] = dose: 400.0 mg/kg/injection, schedule: Q04DX003 (ip), vehicle: saline
[13] = dose: 200.0 mg/kg/injection, schedule: Q01DX001 (ip), vehicle: Klucel (hydroxypropylcellulose) (HPC)
[14] = dose: 400.0 mg/kg/injection, schedule: Q01DX001 (ip), vehicle: Klucel (hydroxypropylcellulose) (HPC)
[15] = dose: 100.0 mg/kg/injection, schedule: Q01DX001 (ip), vehicle: carboxymethylcellulose (CMC)
[16] = dose: 200.0 mg/kg/injection, schedule: Q01DX001 (ip), vehicle: carboxymethylcellulose (CMC)
[17] = dose: 400.0 mg/kg/injection, schedule: Q01DX001 (ip), vehicle: carboxymethylcellulose (CMC)

Measured: T/C

CC1NCCOC1c1ccccc1 (stereo unspecified)
inactive: dose: 12.5 mg/kg/injection, schedule: Q01DX009 (ip), vehicle: saline 93 % of control | [1] 108 % of control and 92 % of control | [2] 114 % of control | [3] 100 % of control and 108 % of control | [4] 103 % of control | [5] 106 % of control | [6] 100 % of control | [7] 88 % of control

O=S1(=O)C(c2ccccc2)C(N2CCCCC2)C1C1CC2c3ccccc3C1c1ccccc12 (stereo unspecified)
inactive: dose: 75.0 mg/kg/injection, schedule: Q01DX001 (ip), vehicle: carboxymethylcellulose (CMC) 91 % of control | dose: 150.0 mg/kg/injection, schedule: Q01DX001 (ip), vehicle: carboxymethylcellulose (CMC) 91 % of control | dose: 300.0 mg/kg/injection, schedule: Q01DX001 (ip), vehicle: carboxymethylcellulose (CMC) 86 % of control

Cc1cnc(-n2nc(-c3ccccc3)cc2-c2ccccc2)nc1-c1ccccc1O
inactive: dose: 12.5 mg/kg/injection, schedule: Q01DX009 (ip), vehicle: Klucel (hydroxypropylcellulose) (HPC) 87 % of control | dose: 25.0 mg/kg/injection, schedule: Q01DX009 (ip), vehicle: Klucel (hydroxypropylcellulose) (HPC) 91 % of control | dose: 50.0 mg/kg/injection, schedule: Q01DX009 (ip), vehicle: Klucel (hydroxypropylcellulose) (HPC) 97 % of control and 92 % of control

COc1ccc2c(ccc3nc(C)[nH]c(=O)c32)c1
inactive: [8] 91 % of control

NC(=S)N=Nc1c(O)[nH]c(=O)[nH]c1=O
inactive: dose: 12.5 mg/kg/injection, schedule: Q01DX009 (ip), vehicle: saline with Tween-80 98 % of control | dose: 12.5 mg/kg/injection, schedule: Q04DX003 (ip), vehicle: saline with Tween-80 97 % of control | dose: 25.0 mg/kg/injection, schedule: Q01DX009 (ip), vehicle: saline with Tween-80 104 % of control | dose: 25.0 mg/kg/injection, schedule: Q04DX003 (ip), vehicle: saline with Tween-80 92 % of control | dose: 50.0 mg/kg/injection, schedule: Q01DX009 (ip), vehicle: saline with Tween-80 104 % of control | dose: 50.0 mg/kg/injection, schedule: Q04DX003 (ip), vehicle: saline with Tween-80 96 % of control

N#CC1(C(N)=O)OC1c1ccccc1Cl (stereo unspecified)
inactive: dose: 100.0 mg/kg/injection, schedule: Q04DX003 (ip), vehicle: carboxymethylcellulose (CMC) 97 % of control | dose: 200.0 mg/kg/injection, schedule: Q04DX003 (ip), vehicle: carboxymethylcellulose (CMC) 98 % of control

CC(c1ccccc1)N(N=O)C(=O)c1ccc2ccccc2c1 (stereo unspecified)
inactive: dose: 17.0 mg/kg/injection, schedule: Q04DX002 (ip), vehicle: saline 94 % of control | dose: 33.0 mg/kg/injection, schedule: Q04DX002 (ip), vehicle: saline 105 % of control | dose: 66.0 mg/kg/injection, schedule: Q04DX002 (ip), vehicle: saline 97 % of control

O=C1C2C(Cl)C(Cl)C(Cl)C(Cl)C2C(=O)N1NC1CCC([N+](=O)[O-])CC1[N+](=O)[O-] (stereo unspecified)
inactive: [5] 91 % of control | dose: 100.0 mg/kg/injection, schedule: Q04DX002 (ip), vehicle: saline 92 % of control | dose: 200.0 mg/kg/injection, schedule: Q01DX009 (ip), vehicle: saline 94 % of control | dose: 200.0 mg/kg/injection, schedule: Q04DX002 (ip), vehicle: saline 106 % of control | dose: 400.0 mg/kg/injection, schedule: Q01DX009 (ip), vehicle: saline 98 % of control | dose: 400.0 mg/kg/injection, schedule: Q04DX002 (ip), vehicle: saline 95 % of control

COc1ccc(CN=C(N)CSS(=O)(=O)O)cc1
inactive: dose: 12.5 mg/kg/injection, schedule: Q04DX002 (ip), vehicle: Klucel (hydroxypropylcellulose) (HPC) 97 % of control | dose: 25.0 mg/kg/injection, schedule: Q04DX002 (ip), vehicle: Klucel (hydroxypropylcellulose) (HPC) 97 % of control

NS(=O)(=O)c1cc([N+](=O)[O-])ccc1Cl
inactive: [9] 108 % of control | [10] 111 % of control | [11] 95 % of control

NC1CCCCC1
inactive: [6] 109 % of control | [7] 102 % of control | [12] 100 % of control

O=C(NCCc1ccccc1)c1ccccc1
inactive: [9] 112 % of control | [10] 102 % of control | [11] 100 % of control

ClCCOCC1CO1 (stereo unspecified)
inactive: [2] 92 % of control | [4] 88 % of control | [6] 97 % of control

Cc1nnc(C(N)=O)c(=O)[nH]1
inactive: [8] 109 % of control | [13] 120 % of control | [14] 97 % of control

CCN(CC)Cc1cc(-n2cnc3c(Cl)ncnc32)ccc1O
inactive: dose: 6.25 mg/kg/injection, schedule: Q04DX003 (ip), vehicle: saline 101 % of control | dose: 12.5 mg/kg/injection, schedule: Q04DX003 (ip), vehicle: saline 103 % of control | [2] 96 % of control

O=C(c1ccccc1)c1cc(CN(CCCl)CCCl)c(O)cc1O
inactive: [15] 106 % of control | [16] 117 % of control | [17] 122 % of control

CC(=O)Nn1nnnc1N
inactive: [6] 99 % of control | [7] 91 % of control | [12] 105 % of control

O=C(O)c1cccc2[nH]c(=O)oc(=O)c12
inactive: dose: 100.0 mg/kg/injection, schedule: Q01DX009 (ip), vehicle: saline with Tween-80 103 % of control | dose: 200.0 mg/kg/injection, schedule: Q01DX009 (ip), vehicle: saline with Tween-80 106 % of control

CN(C)CCOC(=O)c1cccc(CCl)c1CCl
inactive: dose: 87.5 mg/kg/injection, schedule: Q01DX009 (ip), vehicle: saline 106 % of control

CCS(=O)(=O)c1ccc(NC(=O)OC(c2ccccc2)c2ccccc2)cc1
inactive: [15] 94 % of control | [16] 91 % of control | [17] 96 % of control

COC(=O)c1cc(C)cc(O)c1C
inactive: [15] 104 % of control | [16] 98 % of control | [17] 104 % of control

CCOC(=O)/C=C(\C)c1ccc([N+](=O)[O-])cc1
inactive: [8] 107 % of control | [13] 100 % of control | [14] 97 % of control

COc1cc2ccncc2cc1OCc1ccccc1
inactive: [1] 104 % of control | [3] 96 % of control | [5] 102 % of control

CC(C)(C)C1=CC(=O)N2CC=CCC2(C#N)C1=O (stereo unspecified)
inactive: dose: 50.0 mg/kg/injection, schedule: Q01DX001 (ip), vehicle: Klucel (hydroxypropylcellulose) (HPC) 99 % of control | [8] 99 % of control | [13] 99 % of control

CCOC(=O)NNC(=O)c1ccccc1
inactive: dose: 12.5 mg/kg/injection, schedule: Q01DX009 (ip), vehicle: alcohol 100 % of control | dose: 25.0 mg/kg/injection, schedule: Q01DX009 (ip), vehicle: alcohol 90 % of control | dose: 25.0 mg/kg/injection, schedule: Q04DX003 (ip), vehicle: alcohol 103 % of control | dose: 50.0 mg/kg/injection, schedule: Q01DX009 (ip), vehicle: alcohol 89 % of control | dose: 50.0 mg/kg/injection, schedule: Q04DX003 (ip), vehicle: alcohol 101 % of control

From PubChem BioAssay AID248 (DTP/NCI, 2004)
